Laboratory results as given in US11542508B2, “Isolated polynucleotides and polypeptides and methods of using same for expressing an expression product of interest” (priority 2016, dated 2023).

Columns and labels:
phi3T = assay: Growth dynamics of phage-infected cultures (phi3T infection of B. subtilis 168); assay type: cell-based
Protocol: Specifically, overnight cultures of B. subtilis strain 168 were diluted 1:50 in LB media supplemented with 0.1 mM MnCl2 and 5 mM MgCl2, and incubated at 37° C. with shaking until reaching optical density (O.D) 600 nm=0.5. Phages (phi29, phi105, rho14 or phi3T) were added to the bacterial culture at MOI=1 and incubated for 3 hours. The media were centrifuged at 4000 rpm for 10 minutes at 4° C. and the supernatant was filtered with 0.2 μm filer (GE Healthcare Life Sciences, Whatman, CAT #10462200). Phages and large molecules were further filtered out from the media by using Amicon Ultra centrifugal filters at a cutoff of 3,000 NMWL (3 kDa) (Milipore, CAT #UFC900324). A plaque assay was performed in order to verify that no phages were left in the medium.
7.5 mg (per reaction) of Proteinase K-Agarose from Tritirachium album (Sigma, CAT #P9290) were washed twice with 750 μl of sterile water and then resuspended with 750 μl of LB supplemented with 0.1 mM MnCl2 and 5 mM MgCl2. Following, the tubes were centrifuged again and the supernatant was discarded. 1.5 ml of phi3T-derived conditioned medium or control medium was added to a tube containing the washed proteinase K. The media were incubated for 2 hours at 37° C. with the proteinase K. The media were centrifuged and the supernatants were collected for the infection assay.
(§1) Overnight cultures of bacteria were diluted 1:100 in LB media and incubated at 37° C. with shaking until reaching O.D 600 nm=0.1. The bacterial culture was centrifuged at 4000 rpm for 10 minutes at room temperature. The supernatant was discarded and the pellet was resuspended in LB medium supplemented with 0.1 mM MnCl2 and 5 mM MgCl2 at 10% of the initial volume. The concentrated bacterial culture was added to conditioned medium or medium supplemented with synthesized arbitrium peptide in a ratio of 1:9 (bacteria to medium) and incubated for 1 hour at room temperature. Following, the culture was infected with phages at MOI=0.1. Optical density measurements at a wavelength of 600 nm were taken using a TECAN Infinite 200 plate reader in a 96-wells plate.

spBeta = assay: Growth dynamics of phage-infected cultures (spBeta infection of B. subtilis BEST7003); assay type: cell-based; conditions: B. subtilis BEST7003 infected by spBeta at MOI=0.1, LB supplemented with synthesized peptide
Protocol: as §1

aimX = assay: RNA-seq / differential expression analysis during phi3T infection; assay type: cell-based; conditions: medium supplemented by 1 μM peptide
Protocol: To determine the difference in gene expression with and without the peptide, bacteria were incubated for 1 hour in LB medium supplemented with 0.1 mM MnCl2 and 5 mM MgCl2 in the presence or absence of 1 μM synthesized SAIRGA (SEQ ID NO: 269) peptide. Following, the bacteria were infected with phi3T (MOI=0.1); and cell pellets were collected at 0, 5, 10 and 20 minutes post infection.
RNA extraction and RNA-seq was performed as described in Dar et al.^33. Briefly, pellets were lysed using the Fastprep homogenizer (MP Biomedicals, Santa Ana, Calif.) and RNA was extracted with the FastRNA PRO blue kit (MP Biomedicals, 116025050) according to manufacturer's instructions. […]
RNA-seq libraries were sequenced using the Illumina NextSeq500 platform. Sequenced reads were demultiplexed and adapters were trimmed using fastx_clipper with default parameters. Reads were mapped to the reference genomes (gene annotation and sequences were downloaded from Genbank: NC_000964 for Bacillus subtilis str. 168, AP012496 for Bacillus subtilis BEST7003) using NovoAlign (Novocraft) V3.02.02 with default parameters. […]
Reads per gene were calculated for each biological replicate at 20 minutes post infection with and without the synthetic peptide and normalized relative to the total mapped reads hitting the phage genome in each replicate. […]

[1] = test system: Bacillus subtilis BEST7003 containing Construct #2; assay: GFP reporter expression, Construct #2; assay type: cell-based; conditions: Construct #2, peptide 62.5 nM-1000 nM in LB
Protocol: Starter growths of wild type (WT) Bacillus subtilis BEST7003 strain and of Bacillus subtilis BEST7003 strains containing Construct #1 or Construct #2 were cultured in 3 ml Luria-Bertani (LB) broth until the growth curve indicated stationary phase. Following, the bacterial cells were diluted in a ratio of 1/100 in LB broth or LB broth supplemented with a SAIRGA (SEQ ID NO: 269) peptide at a concentration range of 62.5 nM-1000 nM. Optical density (O.D. at 600 nm) and GFP fluorescence levels (488 nm excitation/518 nm emission) were measured over time in a 96 wells plate using a TECAN Infinite 200 plate reader.

AimR = AimR (Bacillus phage phi3T, UniProt P0DOE3); assay: Analytical gel filtration of purified AimR (oligomeric state); parameters: made in house; host or cells: E. coli BL21(DE3), pET28a; conditions: AimR:SAIRGA 1:2, AimR:GMPRGA 1:1 molar ratio
Protocol: Following, AimR was expressed in E. coli BL21(DE3) cells with a C-terminal 6× His-tag. Expression was performed at 15° C. for about ˜18 hours using 200 μM IPTG (Isopropyl β-D-1-thiogalactopyranoside) as an inducer. The cells pellet was resuspended in lysis buffer [50 mM Tris pH 8, 0.3M NaCl, 20 mM Imidazole, 2 mM DTT, 0.2 mg/ml Lysozyme, 1 μg/ml DNAse, protease inhibitor cocktail (Calbiochem)], disrupted by a cell disrupter at 4° C. and clarified at 15,000 g for 30 minutes. The clarified lysate was loaded onto a HisTrap_FF_5 ml column (GE Healthcare) and washed with buffer containing 50 mM Tris pH 8, 0.3 M NaCl, 20 mM imidazole and 2 mM DTT. AimR was eluted from the column in one step with the same buffer containing 0.5 M imidazole. Fractions containing AimR were pooled and injected to a size exclusion column (HiLoad_16/60_Superdex_200_prepgrade,GE_Healthcare) equilibrated with 20 mM Tris pH 8, 0.3 M NaCl, 2 mM TCEP. Fractions containing pure AimR were pooled and flash frozen in aliquots using liquid nitrogen.
Pure AimR was injected to an analytical gel filtration column (Superdex_200_Increase_10/30 GL, GE Healthcare) equilibrated with buffer containing 20 mM Tris pH 8, 0.3 M NaCl, 2 mM TCEP. […]

Sequence of AimR (P0DOE3 whole entry): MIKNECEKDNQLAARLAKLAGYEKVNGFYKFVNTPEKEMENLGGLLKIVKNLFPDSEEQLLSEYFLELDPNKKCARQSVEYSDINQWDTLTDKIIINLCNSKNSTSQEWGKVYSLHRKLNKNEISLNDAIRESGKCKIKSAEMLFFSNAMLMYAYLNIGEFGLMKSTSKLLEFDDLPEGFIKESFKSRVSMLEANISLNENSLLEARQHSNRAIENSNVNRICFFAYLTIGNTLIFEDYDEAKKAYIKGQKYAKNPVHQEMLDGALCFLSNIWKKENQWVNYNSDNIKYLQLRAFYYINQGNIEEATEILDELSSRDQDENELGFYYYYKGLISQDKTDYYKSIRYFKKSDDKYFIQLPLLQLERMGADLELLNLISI

CC[C@H](C)[C@H](NC(=O)[C@H](C)NC(=O)[C@@H](N)CO)C(=O)N[C@@H](CCCNC(=N)N)C(=O)NCC(=O)N[C@@H](C)C(=O)O [SAIRGA, Ser-Ala-Ile-Arg-Gly-Ala]
effect on the phage infection dynamics (culture lysis, growth curve) (phi3T; B. subtilis 168 infected by phi3T at MOI=0.1, LB supplemented with synthesized peptide): reduced culture lysis | peptide concentration of maximal effect on the culture growth curve (phi3T; B. subtilis 168 infected by phi3T at MOI=0.1, effect saturated above): 500 nM | effect on lysogeny / infection dynamics of spBeta (spBeta): had no effect on the infection dynamics of spBeta | reduction of aimX expression (aimX): more than 20 fold | GFP expression in presence of peptide [1]: differential expression of GFP dependent on the concentration of the peptide | AimR oligomeric state (migration in gel filtration column) (AimR): strictly migrated as a monomer
